# Measured values taken from PubChem BioAssay AID1896 (NMMLSC, 2009).
# Calls of active or inactive are those of the source. The rule behind the calls is not given here.
# Target: Mitogen-activated protein kinase kinase kinase 3 (Homo sapiens) (UniProt Q99759)
# Experiment: inhibitors of MEK5 binding to MEKK3, dose response, biochemical, bead multiplex flow cytometry, wildtype (AID 1896)
# Conditions: bead-based multiplex flow cytometry, MEK5-MEKK3 PB1 binding
# Sequence of Mitogen-activated protein kinase kinase kinase 3 (Homo sapiens) (Q99759 whole entry, looked up): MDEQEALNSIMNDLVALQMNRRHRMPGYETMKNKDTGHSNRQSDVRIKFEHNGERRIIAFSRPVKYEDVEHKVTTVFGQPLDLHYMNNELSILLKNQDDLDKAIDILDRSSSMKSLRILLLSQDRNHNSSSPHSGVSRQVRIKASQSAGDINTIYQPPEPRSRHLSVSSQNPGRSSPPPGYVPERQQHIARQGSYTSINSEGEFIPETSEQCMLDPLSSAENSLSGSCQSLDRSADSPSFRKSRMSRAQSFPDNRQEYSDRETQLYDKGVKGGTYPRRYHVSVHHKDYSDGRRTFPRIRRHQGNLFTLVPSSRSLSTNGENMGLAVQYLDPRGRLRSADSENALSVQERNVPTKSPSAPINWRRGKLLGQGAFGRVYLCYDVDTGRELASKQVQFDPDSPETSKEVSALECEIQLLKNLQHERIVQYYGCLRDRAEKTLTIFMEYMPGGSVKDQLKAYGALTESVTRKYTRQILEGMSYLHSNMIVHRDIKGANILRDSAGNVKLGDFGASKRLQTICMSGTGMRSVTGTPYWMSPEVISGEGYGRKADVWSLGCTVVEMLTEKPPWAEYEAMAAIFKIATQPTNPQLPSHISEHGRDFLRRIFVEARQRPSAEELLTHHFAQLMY
row,SMILES,EC50
1,C#CCOCCOCCOCCNc1nc(N2CCN(C(=O)[C@H]([C@@H](C)CC)n3cc([C@@H](N)Cc4ccc(O)cc4)nn3)CC2)nc(N2CCN(C(=O)[C@H](Cc3cc4ccccc4[nH]3)n3cc([C@@H](N)C(C)CC)nn3)CC2)n1 (some centres undefined),> 30 µM (inactive)
2,C#CCOCCOCCOCCNc1nc(N2CCN(C(=O)C(Cc3cc4ccccc4[nH]3)n3cc(C(N)C(C)CC)nn3)CC2)nc(N2CCN(C(=O)C(Cc3cc4ccccc4[nH]3)n3cc(C(N)C(C)CC)nn3)CC2)n1 (centres undefined),> 30 µM (inactive)
3,C#CCOCCOCCOCCNc1nc(N2CCN(C(=O)[C@H](Cc3cc4ccccc4[nH]3)n3cc([C@@H](N)C(C)CC)nn3)CC2)nc(N2CCN(C(=O)[C@H](Cc3cc4ccccc4[nH]3)n3cc([C@@H](N)CC(C)C)nn3)CC2)n1 (some centres undefined),> 30 µM (inactive)
4,CCCSc1ncnc2sc(C)c(C)c12,> 30 µM (inactive)
5,O=[N+]([O-])c1ccc(/C=C/C2=NN(c3ccccc3)C(c3ccco3)C2)o1 (centres undefined),> 30 µM (inactive)
6,C#CCOCCOCCOCCNc1nc(N2CCN(C(=O)[C@H](CCCCN)n3cc([C@@H](N)CC(C)C)nn3)CC2)nc(N2CCN(C(=O)[C@H](Cc3cc4ccccc4[nH]3)n3cc([C@@H](N)Cc4ccc(O)cc4)nn3)CC2)n1,> 30 µM (inactive)
7,CNC[C@H](CC1CCCCC1)NC[C@H](Cc1ccccc1)NCCC12CC3CC(CC(C3)C1)C2,> 30 µM (inactive)
8,CNc1nc(-c2c[nH]c3ccccc23)cs1,8.73 µM
9,O=C1c2ccccc2-c2onc3ccc(NCc4ccco4)c1c23,> 30 µM (inactive)
10,C#CCOCCOCCOCCNc1nc(N2CCN(C(=O)[C@H](Cc3ccc(O)cc3)n3cc([C@@H](N)CC(C)C)nn3)CC2)nc(N2CCN(C(=O)[C@H](Cc3cc4ccccc4[nH]3)n3cc([C@@H](N)CC(C)C)nn3)CC2)n1,> 30 µM (inactive)
11,CNC(=O)C(=O)Nc1c(C)cc(C)cc1C,> 30 µM (inactive)
12,C#CCOCCOCCOCCNc1nc(N2CCN(C(=O)C(Cc3ccc(O)cc3)n3cc(C(N)CC(C)C)nn3)CC2)nc(N2CCN(C(=O)C(Cc3cc4ccccc4[nH]3)n3cc(C(N)C(C)CC)nn3)CC2)n1 (centres undefined),> 30 µM (inactive)
13,NC(=O)CSc1nnc(Cc2ccc3c(c2)OCO3)o1,> 30 µM (inactive)
14,c1ccc(CNc2nc(NCc3ccccc3)c3ccccc3n2)cc1,> 30 µM (inactive)
15,NC(=NCCCCCCN=C(N)/N=C(\N)Nc1ccc(Cl)cc1)/N=C(\N)Nc1ccc(Cl)cc1,> 30 µM (inactive)
16,COc1cccc(OC)c1-c1nn2c(-c3cc(-c4ccccc4)n[nH]3)nnc2s1,5.37 µM

row,SMILES,EC50
1,C#CCOCCOCCOCCNc1nc(N2CCN(C(=O)[C@H](Cc3ccc(O)cc3)n3cc([C@@H](N)C(C)CC)nn3)CC2)nc(N2CCN(C(=O)[C@H](Cc3cc4ccccc4[nH]3)n3cc([C@@H](N)Cc4ccc(O)cc4)nn3)CC2)n1 (some centres undefined),> 30 µM (inactive)
2,C/C(=N\NC(=O)c1cc(O)cc(O)c1)c1ccc(NC(=O)Cc2ccccc2)cc1,> 30 µM (inactive)
3,CCN1/C(=C/C=C/C=C/C=C/c2sc3ccccc3[n+]2CC)Sc2ccccc21,> 30 µM (inactive)
4,CCN(Cc1ccccc1)S(=O)(=O)c1ccc(C(=O)N(CCCN(C)C)c2nc3ccc(F)cc3s2)cc1,> 30 µM (inactive)
5,CN1C(=O)/C(=C\c2ccc(-c3ccccc3)o2)SC1=S,10.2 µM
6,Nc1ccc(N)c(C(=O)O)c1,3.06 µM
7,C#CCOCCOCCOCCNc1nc(N2CCN(C(=O)[C@H]([C@@H](C)CC)n3cc([C@@H](N)CO)nn3)CC2)nc(N2CCN(C(=O)[C@H](Cc3cc4ccccc4[nH]3)n3cc([C@@H](N)Cc4ccc(O)cc4)nn3)CC2)n1,8.28 µM
8,CN1C(=CC=C2C=C(I)C(=O)C(I)=C2)C(C)(C)c2ccccc21,> 30 µM (inactive)
9,Cc1cc(N=Nc2ccc(C)c(N=Nc3cc(C)c(N)cc3N)c2)c(N)cc1N,> 30 µM (inactive)
10,NC(N)=N/N=C/c1ccc(OCc2ccccc2Cl)cc1,> 30 µM (inactive)
11,C#CCOCCOCCOCCNc1nc(N2CCN(C(=O)[C@H](Cc3ccc(O)cc3)n3cc([C@@H](N)CC(C)C)nn3)CC2)nc(N2CCN(C(=O)[C@H](Cc3ccc(O)cc3)n3cc([C@@H](N)CC(C)C)nn3)CC2)n1,> 30 µM (inactive)
12,O=C(CCCC(=O)N(CC(=O)NC1CCCC1)C1CCCC1)Nc1ccccn1,> 30 µM (inactive)
13,CCCCCCOc1ccc(/C(C)=N/NC2=NCCN2)cc1[N+](=O)[O-],> 30 µM (inactive)
14,Brc1ccc(N=C/C=C/C=C/Nc2ccc(Br)cc2)cc1,10.6 µM
15,C=CCN1C(=O)/C(=C/c2ccc(-c3ccc(F)cc3)o2)SC1=S,> 30 µM (inactive)
16,C#CCOCCOCCOCCNc1nc(N2CCN(C(=O)C(Cc3ccc(O)cc3)n3cc(C(N)CC(C)C)nn3)CC2)nc(N2CCN(C(=O)C(Cc3cc4ccccc4[nH]3)n3cc(C(N)Cc4ccc(O)cc4)nn3)CC2)n1 (centres undefined),> 30 µM (inactive)

# More lines, now with the values ahead:
row,EC50,SMILES
1,> 30 µM (inactive),CCN1CCN(Cc2ccc(NC(=O)c3cc(NC(=O)c4cnn(-c5ccccc5)c4N)cc(OC)c3)cc2C(F)(F)F)CC1
2,> 30 µM (inactive),CCCCCCCCCCOC(=O)Cn1c(COc2ccccc2OC)[n+](C)c2ccccc21
3,> 30 µM (inactive),CCCCCc1cc(=O)oc2c(C(CCN3CCCCC3)c3ccc(OC)cc3)c(OC)cc(OC)c12 (centres undefined)
4,> 30 µM (inactive),CCN(CC)CCNC(=O)c1ccc(NC(=O)c2cn(-c3ccccc3)nc2-c2cccs2)cc1
5,3.81 µM,CCN(CC)CCOC(=O)c1ccc(N/C=C(/C#N)c2nc(-c3cc4ccccc4oc3=O)cs2)cc1
6,> 30 µM (inactive),CCc1ccc(Nc2n[n+](-c3ccccc3)c(-c3ccc(OCc4ccccc4)cc3)s2)cc1
7,9.27 µM,CCN1/C(=C\c2ccc3cc(C)ccc3[n+]2CC)Sc2cc(C)c(C)cc21
8,> 30 µM (inactive),CN(C)CCCNc1cc(C(C)(C)C)nc2c(-c3ccc(Cl)cc3)cnn12
9,> 30 µM (inactive),COc1ccc(C2NCCc3c2[nH]c2ccccc32)cc1CN1CCc2cc(OC)c(OC)cc2C1C (centres undefined)
10,> 30 µM (inactive),CCOC(=O)C1=C(c2ccccc2)NC(N)=NC1c1ccc(OCc2ccc(C(=O)OC)cc2)cc1 (centres undefined)
11,> 30 µM (inactive),CN(C)CCCN(C(=O)c1ccc2c(c1)CCCC2)c1nc2ccc(Cl)cc2s1
12,> 30 µM (inactive),COc1ccc(-c2cc(C#N)nc(N3CCNCC3)n2)cc1
13,0.34 µM,CN(c1ccccc1)c1ccc(/C=c2\s/c(=C(/C#N)C(=O)C(C)(C)C)n(Cc3ccco3)c2=O)cc1
14,25.2 µM,Cc1nc(Nc2cnc(/C=C/c3cc(C(=O)Nc4cccc(C(F)(F)F)c4)ccc3C)cn2)cc(N2CCNCC2)n1
15,> 30 µM (inactive),Cc1cc2ccccc2n1CCNC(=O)c1cccs1
16,2.68 µM,CN1CCN(c2ccc(NC(=O)c3ccc(-c4ccc(Cl)cc4)o3)cc2)CC1
17,> 30 µM (inactive),O=C(c1cc(COc2c(F)cccc2F)on1)N1C[C@H]2CC[C@H]1C2
18,> 30 µM (inactive),CCOC(=O)c1c(-c2ccc(-c3ccccc3)cc2)csc1NC(=O)CNCCN(C)C
19,> 30 µM (inactive),COc1ccccc1N1CCN(S(=O)(=O)c2ccc(Cl)s2)CC1
20,> 30 µM (inactive),CCN1CCN(Cc2ccc(NC(=O)c3ccc(C)c(NC(=O)C(=O)c4c[nH]c5ccccc45)c3)cc2C(F)(F)F)CC1
21,> 30 µM (inactive),COc1cc2nc(N3CCN(c4cc(C)ccc4C)CC3)nc(N)c2cc1OC
22,> 30 µM (inactive),COc1ccccc1N(CN1C(=O)c2ccccc2C1=O)C(=O)c1cccc(C)c1

row,EC50,SMILES
1,> 30 µM (inactive),CCn1cc(C(=O)O)c(=O)c2cc(F)c(N3CCN(C(=S)NC(=O)c4ccc(Br)cc4)CC3)cc21
2,> 30 µM (inactive),CCN(CC)CCOC(=O)c1ccc(N/C=C(/C#N)c2nc(-c3cccc(OC)c3)cs2)cc1
3,> 30 µM (inactive),CCOC(=O)c1c(C)n(-c2ccc(C)cc2)c2ccc(OCC(O)CN3CCN(C)CC3)cc12 (centres undefined)
4,> 30 µM (inactive),CCOc1cccc2sc(N(CCCN(C)C)C(=O)c3ccc(S(=O)(=O)N4CCc5ccccc5C4)cc3)nc12
5,> 30 µM (inactive),CCN(CC)CCOC(=O)c1ccc(N/C=C(/C#N)c2nc(-c3ccc4c(c3)OCO4)cs2)cc1
6,> 30 µM (inactive),CCCCCc1cc(=O)oc2c(C(CCN3CCCCC3)c3ccc4c(c3)OCO4)c(OC)cc(OC)c12 (centres undefined)
7,> 30 µM (inactive),S=C(Nc1cccc(Cl)c1)N(CCCN1CCCC1)Cc1cccn1Cc1ccc(Cl)cc1
8,> 30 µM (inactive),CN(C)CCCn1c(SCC(=O)Nc2nc(-c3cccc(Br)c3)cs2)nc2ccccc2c1=O
9,> 30 µM (inactive),NC(N)=N/N=C/c1ccc(OCc2ccc(Cl)cc2Cl)cc1
10,> 30 µM (inactive),COc1ccc2nc3cc(Cl)ccc3c(Nc3cc(C(C)C)c(O)cc3C)c2c1
11,> 30 µM (inactive),COc1ccc2nc(C)cc(N/N=C/c3cccc(OC)c3O)c2c1
12,> 30 µM (inactive),COc1ccc(Cn2c(SCc3ccc(C)cc3)nc3cc(OC)c(OC)cc3c2=N)cc1Cl
13,0.27 µM,CCC(=C/c1sc2ccc3ccccc3c2[n+]1C)/C=C1\Sc2ccc3ccccc3c2N1C
14,> 30 µM (inactive),COc1ccc(-c2csc(N(CCCN(C)C)C(=O)c3ccccc3Cl)n2)cc1
15,> 30 µM (inactive),CCc1ccc(Nc2n[n+](-c3ccccc3)c(-c3cc(OC)c(OC)cc3Br)s2)cc1
16,> 30 µM (inactive),CC(C)N=c1cc2n(-c3ccc(Cl)cc3)c3ccccc3nc-2cc1Nc1ccc(Cl)cc1
17,> 30 µM (inactive),COc1ccc(C(CCNCc2ccc(OC(C)C)cc2)c2ccccc2OC)cc1 (centres undefined)
18,1.01 µM,CCN1/C(=C/C(C)=C/c2sc3ccccc3[n+]2CC)Sc2ccccc21
19,> 30 µM (inactive),CCN(CC)CCOc1ccc2c(c1)C(=NNC(=O)c1ccccn1)c1cc(OCCN(CC)CC)ccc1-2
20,> 30 µM (inactive),COc1ccc(/C=N/Nc2cc(C)nc3ccc(Br)cc23)cc1
21,> 30 µM (inactive),CCCCCCCCCCOC(=O)Cn1c(COc2ccc(OC)cc2)[n+](C)c2ccccc21
22,> 30 µM (inactive),OCCCCNCc1ccc(OCc2ccc(Cl)cc2Cl)cc1

# Same assay, conditions: bead-based multiplex flow cytometry, MEK5-MEKK3 PB1 binding; measured here: Ki from EC50
row,SMILES,Ki [µM]
1,CNc1nc(-c2c[nH]c3ccccc23)cs1,7.47
2,COc1cccc(OC)c1-c1nn2c(-c3cc(-c4ccccc4)n[nH]3)nnc2s1,4.59
3,CN1C(=O)/C(=C\c2ccc(-c3ccccc3)o2)SC1=S,8.75
4,Nc1ccc(N)c(C(=O)O)c1,2.62
5,C#CCOCCOCCOCCNc1nc(N2CCN(C(=O)[C@H]([C@@H](C)CC)n3cc([C@@H](N)CO)nn3)CC2)nc(N2CCN(C(=O)[C@H](Cc3cc4ccccc4[nH]3)n3cc([C@@H](N)Cc4ccc(O)cc4)nn3)CC2)n1,7.08
6,Brc1ccc(N=C/C=C/C=C/Nc2ccc(Br)cc2)cc1,9.04

# Second part, the compound after the results:
row,Ki [µM],SMILES
1,3.26,CCN(CC)CCOC(=O)c1ccc(N/C=C(/C#N)c2nc(-c3cc4ccccc4oc3=O)cs2)cc1
2,7.93,CCN1/C(=C\c2ccc3cc(C)ccc3[n+]2CC)Sc2cc(C)c(C)cc21
3,0.29,CN(c1ccccc1)c1ccc(/C=c2\s/c(=C(/C#N)C(=O)C(C)(C)C)n(Cc3ccco3)c2=O)cc1
4,21.5,Cc1nc(Nc2cnc(/C=C/c3cc(C(=O)Nc4cccc(C(F)(F)F)c4)ccc3C)cn2)cc(N2CCNCC2)n1
5,2.29,CN1CCN(c2ccc(NC(=O)c3ccc(-c4ccc(Cl)cc4)o3)cc2)CC1
6,0.23,CCC(=C/c1sc2ccc3ccccc3c2[n+]1C)/C=C1\Sc2ccc3ccccc3c2N1C
7,0.86,CCN1/C(=C/C(C)=C/c2sc3ccccc3[n+]2CC)Sc2ccccc21
